EC50 data for 38 compounds are collected here from ChEMBL document CHEMBL1150207, “Cytotoxicities of some flavonoid analogues” (1991).

The structures appear in SMILES notation. Values after ≈ are worked out from the molar mass of the structure shown.

Common to all, as to format: functional
In one assay the test system is HT-29. Briefly: Cytotoxicity against human HT-29 cells after 6 days by MTT assay. As to conditions: HT-29, 144 h, read-out: ED50 (the source's name). (In general: Tetrazolium dyes change colour on reduction, which living cells bring about.)
For the next assay, the system named is Malme-3M. Briefly: Cytotoxicity against human MALME-3M cells after 6 days by MTT assay. The following applies: 144 h, read-out: ED50 (the source's name).
A further assay has as its system MCF7. Briefly: Cytotoxicity against human MCF7 cells after 6 days by MTT assay. The following applies: MCF7, 144 h, read-out: ED50 (the source's name).
The subject of another assay is A549. Put plainly: Cytotoxicity against human A549 cells after 6 days by MTT assay. As to conditions: A549, 144 h, read-out: ED50 (the source's name).
In a further assay the test system is SK-MEL. Put plainly: Cytotoxicity against human SK-MEL cells after 6 days by MTT assay. As to conditions: 144 h, read-out: ED50 (the source's name).

`O=C(O)c1c(-c2ccc(Br)cc2)oc2ccccc2c1=O`: the EC50 in the assay on HT-29, with Malme-3M, in the assay with MCF7, in the assay with A549 and in the assay on SK-MEL was greater than 25 µg/mL each time.
As for `Nc1ccc(-c2cc(=O)c3ccc(O)cc3o2)cc1`, the EC50 in the assay with HT-29 was 4.71 µg/mL (≈ 18.6 µM); with Malme-3M, greater than 25 µg/mL; in the assay on MCF7 it was greater than 25 µg/mL; with A549, 8.87 µg/mL (≈ 35 µM); in the assay on SK-MEL it was 6.59 µg/mL (≈ 26 µM).
Take `COC(=O)c1c(-c2cc(OC)c(OC)c(OC)c2)oc2ccccc2c1=O`: the EC50 in the assay with HT-29, in the assay on Malme-3M, in the assay with MCF7, in the assay with A549 and with SK-MEL was greater than 25 µg/mL in each case.
In the case of `O=C(O)c1c(-c2ccc([N+](=O)[O-])cc2)oc2ccccc2c1=O`, the EC50 with HT-29, in the assay with Malme-3M, with MCF7, in the assay with A549 and with SK-MEL was greater than 25 µg/mL throughout.
For `COC(=O)c1c(-c2ccc([N+](=O)[O-])cc2)oc2ccccc2c1=O`, the EC50 in the assay with HT-29, with Malme-3M, with MCF7, in the assay with A549 and in the assay on SK-MEL was greater than 25 µg/mL throughout.
As to `COC(=O)c1c(-c2ccc(O)cc2)oc2cc(OC)ccc2c1=O`, the EC50 with HT-29 was 19.2 µg/mL (≈ 58.9 µM); with Malme-3M it was 20.1 µg/mL (≈ 61.6 µM); in the assay on MCF7 it was greater than 25 µg/mL; in the assay on A549, greater than 25 µg/mL; in the assay on SK-MEL it was 19.6 µg/mL (≈ 59.9 µM).
With `COC(=O)c1c(-c2ccc([N+](=O)[O-])cc2)oc2ccc(OC)cc2c1=O`, the EC50 was greater than 25 µg/mL with HT-29; 24.1 µg/mL (≈ 67.8 µM) in the assay on Malme-3M; greater than 25 µg/mL with MCF7; greater than 25 µg/mL with A549; 8.18 µg/mL (≈ 23 µM) in the assay on SK-MEL.
Turning to `Nc1ccc(-c2cc(=O)c3cc(O)ccc3o2)cc1`, the EC50 with HT-29 was 2.65 µg/mL (≈ 10.5 µM); in the assay on Malme-3M, greater than 25 µg/mL; in the assay with MCF7 it was greater than 25 µg/mL; in the assay on A549, 2.72 µg/mL (≈ 10.7 µM); in the assay with SK-MEL it was 2.03 µg/mL (≈ 8.02 µM).
Consider `COc1ccc(-c2oc3ccccc3c(=O)c2C(=O)O)cc1`, for which the EC50 with HT-29, in the assay with Malme-3M, in the assay on MCF7, with A549 and in the assay on SK-MEL was greater than 25 µg/mL in each case.
Turning to `COC(=O)c1c(-c2ccc(Br)cc2)oc2ccccc2c1=O`, the EC50 with HT-29, in the assay with Malme-3M, in the assay on MCF7, in the assay on A549 and with SK-MEL was greater than 25 µg/mL each time.
Consider `COC(=O)c1c(-c2ccc(OC)cc2)oc2ccccc2c1=O`, for which the EC50 in the assay with HT-29, in the assay with Malme-3M, with MCF7, in the assay with A549 and in the assay with SK-MEL was greater than 25 µg/mL throughout.
As to `Nc1ccc(-c2cc(=O)c3c(O)cc(O)cc3o2)cc1`, the EC50 in the assay with HT-29 is 3.44 µg/mL (≈ 12.8 µM); with Malme-3M it was greater than 25 µg/mL; in the assay on MCF7, greater than 25 µg/mL; in the assay on A549, 2.84 µg/mL (≈ 10.5 µM); with SK-MEL it was 3.86 µg/mL (≈ 14.3 µM).
With `COC(=O)c1c(-c2ccc(O)cc2)oc2ccc(OC)cc2c1=O`, the EC50 was greater than 25 µg/mL in the assay with HT-29; greater than 25 µg/mL in the assay on Malme-3M; greater than 25 µg/mL in the assay with MCF7; greater than 25 µg/mL in the assay with A549; 18.7 µg/mL (≈ 57.3 µM) in the assay with SK-MEL.
Consider `COc1ccc(-c2oc3ccccc3c(=O)c2C(=O)O)cc1OC`, for which the EC50 with HT-29, in the assay with Malme-3M, in the assay with MCF7, with A549 and in the assay on SK-MEL was greater than 25 µg/mL throughout.
On to `COc1ccc2oc(-c3ccc([N+](=O)[O-])cc3)c(C(=O)O)c(=O)c2c1`, for which the EC50 was greater than 25 µg/mL in the assay with HT-29; greater than 25 µg/mL in the assay with Malme-3M; 15.8 µg/mL (≈ 46.4 µM) in the assay with MCF7; greater than 25 µg/mL with A549; greater than 25 µg/mL in the assay on SK-MEL.
As to `COC(=O)c1c(-c2ccc(OCc3ccccc3)cc2)oc2ccc(OC)cc2c1=O`, the EC50 is 15.6 µg/mL (≈ 37.4 µM) with HT-29; greater than 25 µg/mL in the assay with Malme-3M; greater than 25 µg/mL in the assay on MCF7; 22.1 µg/mL (≈ 53 µM) with A549; 20.9 µg/mL (≈ 50.1 µM) in the assay with SK-MEL.
As for `O=c1cc(-c2ccc([N+](=O)[O-])cc2)oc2cc(O)ccc12`, the EC50 with HT-29 is 6.95 µg/mL (≈ 24.5 µM); in the assay with Malme-3M, greater than 25 µg/mL; in the assay with MCF7, greater than 25 µg/mL; in the assay with A549, 21.8 µg/mL (≈ 76.9 µM); with SK-MEL, greater than 25 µg/mL.
For `COc1cc(-c2oc3ccccc3c(=O)c2C(=O)O)cc(OC)c1OC`, the EC50 in the assay with HT-29, with Malme-3M, in the assay with MCF7, in the assay with A549 and in the assay on SK-MEL was greater than 25 µg/mL each time.
For `O=c1cc(-c2ccc([N+](=O)[O-])cc2)oc2ccc(O)cc12`, the EC50 in the assay with HT-29 is greater than 25 µg/mL; with Malme-3M, greater than 25 µg/mL; with MCF7, greater than 25 µg/mL; in the assay with A549, 5.07 µg/mL (≈ 17.9 µM); with SK-MEL, 21 µg/mL (≈ 74.2 µM).
With `COC(=O)c1c(-c2ccc(OCc3ccccc3)cc2)oc2ccccc2c1=O`, the EC50 in the assay on HT-29, in the assay on Malme-3M, in the assay on MCF7, in the assay with A549 and with SK-MEL was greater than 25 µg/mL throughout.
In the case of `COc1cc(OC)cc(-c2oc3ccccc3c(=O)c2C(=O)O)c1`, the EC50 in the assay on HT-29, in the assay on Malme-3M, with MCF7, in the assay with A549 and with SK-MEL was greater than 25 µg/mL each time.
In the case of `COC(=O)c1c(-c2ccc(NC(C)=O)cc2)oc2cc(OC)ccc2c1=O`, the EC50 stood at 8.21 µg/mL (≈ 22.3 µM) with HT-29; 9.26 µg/mL (≈ 25.2 µM) in the assay with Malme-3M; 9.19 µg/mL (≈ 25 µM) with MCF7; 9.76 µg/mL (≈ 26.6 µM) in the assay on A549; 15.9 µg/mL (≈ 43.4 µM) in the assay on SK-MEL.
For `COC(=O)c1c(-c2ccc(OC)c(OC)c2)oc2ccccc2c1=O`, in that order: greater than 25 µg/mL, greater than 25 µg/mL, greater than 25 µg/mL, greater than 25 µg/mL and greater than 25 µg/mL.
Consider `COC(=O)c1c(-c2ccc(O)cc2)oc2ccccc2c1=O`, for which the EC50 in the assay on HT-29, in the assay with Malme-3M, with MCF7, in the assay with A549 and with SK-MEL was greater than 25 µg/mL throughout.
Turning to `COC(=O)c1c(-c2cc(OC)cc(OC)c2)oc2ccccc2c1=O`, the EC50 in the assay with HT-29 was 6.99 µg/mL (≈ 20.5 µM); with Malme-3M it was greater than 25 µg/mL; with MCF7, greater than 25 µg/mL; in the assay with A549 it was greater than 25 µg/mL; with SK-MEL it was greater than 25 µg/mL.
`O=c1cc(-c2ccc([N+](=O)[O-])cc2)oc2cc(O)cc(O)c12`: the EC50 in the assay with HT-29 was 3.34 µg/mL (≈ 11.2 µM); with Malme-3M, greater than 25 µg/mL; in the assay with MCF7, 6.9 µg/mL (≈ 23.1 µM); in the assay on A549, 4.19 µg/mL (≈ 14 µM); in the assay on SK-MEL, 4.87 µg/mL (≈ 16.3 µM).
For `COC(=O)c1c(-c2ccc([N+](=O)[O-])cc2)oc2cc(OC)ccc2c1=O` the same measures were greater than 25 µg/mL, 1.12 µg/mL (≈ 3.15 µM), greater than 25 µg/mL, greater than 25 µg/mL and 2.84 µg/mL (≈ 7.99 µM).
On to `COC(=O)c1c(-c2ccc(OCc3ccccc3)cc2)oc2cc(OC)ccc2c1=O`, for which the EC50 with HT-29 is 5.42 µg/mL (≈ 13 µM); in the assay on Malme-3M it was greater than 25 µg/mL; in the assay on MCF7 it was 5.16 µg/mL (≈ 12.4 µM); in the assay on A549 it was 20.4 µg/mL (≈ 49.1 µM); in the assay on SK-MEL, greater than 25 µg/mL.
For the compound `COc1ccc2c(=O)c(C(=O)O)c(-c3ccc([N+](=O)[O-])cc3)oc2c1`, the EC50 in the assay on HT-29, in the assay on Malme-3M, in the assay with MCF7, in the assay on A549 and in the assay on SK-MEL was greater than 25 µg/mL throughout.
Take `COC(=O)c1c(-c2ccc(N)cc2)oc2ccccc2c1=O`: the EC50 with HT-29, in the assay with Malme-3M, with MCF7, with A549 and in the assay on SK-MEL was greater than 25 µg/mL in each case.
Consider `O=c1cc(-c2ccc([N+](=O)[O-])cc2)oc2c(O)c(O)ccc12`, for which the EC50 in the assay with HT-29 was 3.46 µg/mL (≈ 11.6 µM); with Malme-3M, 3.61 µg/mL (≈ 12.1 µM); with MCF7, 4.69 µg/mL (≈ 15.7 µM); with A549, 2.56 µg/mL (≈ 8.56 µM); in the assay on SK-MEL, 3.29 µg/mL (≈ 11 µM).
On to `COc1cc(-c2cc(=O)c3ccc(O)c(O)c3o2)cc(OC)c1OC`, for which the EC50 is 3.66 µg/mL (≈ 10.6 µM) in the assay on HT-29; greater than 25 µg/mL in the assay on Malme-3M; 1.11 µg/mL (≈ 3.22 µM) with MCF7; 5.27 µg/mL (≈ 15.3 µM) in the assay with A549; greater than 25 µg/mL with SK-MEL.
Take `COc1cc(-c2cc(=O)c3ccc(O)cc3o2)cc(OC)c1OC`: the EC50 in the assay on HT-29, in the assay with Malme-3M, in the assay with MCF7, in the assay with A549 and in the assay on SK-MEL was greater than 25 µg/mL throughout.
As for `CC(=O)Nc1ccc(-c2cc(=O)c3ccc(OC(C)=O)cc3o2)cc1`, the EC50 with HT-29 was 19.8 µg/mL (≈ 58.7 µM); in the assay on Malme-3M it was greater than 25 µg/mL; in the assay on MCF7, 19.2 µg/mL (≈ 56.9 µM); in the assay with A549 it was 20.5 µg/mL (≈ 60.9 µM); in the assay with SK-MEL, 16.9 µg/mL (≈ 50.1 µM).
For `CC(=O)Nc1ccc(-c2cc(=O)c3c(OC(C)=O)cc(OC(C)=O)cc3o2)cc1`, in that order: 17.4 µg/mL (≈ 44 µM), greater than 25 µg/mL, 1.78 µg/mL (≈ 4.5 µM), 22 µg/mL (≈ 55.6 µM) and 14 µg/mL (≈ 35.3 µM).
For `COc1cc(-c2cc(=O)c3cc(O)ccc3o2)cc(OC)c1O[Si](C)(C)C(C)(C)C` the same measures were 2.63 µg/mL (≈ 6.14 µM), 5.3 µg/mL (≈ 12.4 µM), 2.01 µg/mL (≈ 4.69 µM), 3.19 µg/mL (≈ 7.44 µM) and 2.95 µg/mL (≈ 6.88 µM).
For `COc1cc(-c2cc(=O)c3cc(O)ccc3o2)cc(OC)c1OC`, in that order: 7.85 µg/mL (≈ 23.9 µM), greater than 25 µg/mL, greater than 25 µg/mL, 9.82 µg/mL (≈ 29.9 µM) and 5.87 µg/mL (≈ 17.9 µM).
Take `COc1ccc2oc(-c3ccc(O)cc3)c(C(=O)O)c(=O)c2c1`: the EC50 with HT-29, in the assay on Malme-3M, in the assay on MCF7, in the assay with A549 and with SK-MEL was greater than 25 µg/mL in each case.
